Where a name gives a salt, the structure may show the parent alone.

For experiment [1], the system named is J774 cells. The experiment can be described thus: NO formation by activated J774 mouse macrophage cells. The format is cell-based. Particulars: interferon-gamma and endotoxin, 3 days, 0 to 62.5 uM. The procedure:
(§1) Cells of the mouse macrophage cell line J774 were incubated 3 days with 10 ng/ml endotoxin and 100 units/ml murine interferon gamma to activate the macrophage-like cells for NO production. The cultures also contained 0 to 62.5 uM dicyanocobinamide for the 3 days. At the end of the culture period, supernatant cell NO production was determined. […] Cells of the mouse macrophage cell line Raw 264 were incubated 24 hours with 100 units/ml murine interferon gamma to activate the macrophage-like cells for NO production. The cultures also contained 0, 0.5, 2.0, or 8.0 uM dicyanocobinamide for the entire culture period. At the end of the culture period the cells were assessed for NO production using DAF-MN and a fluorimeter. Results are expressed as percent inhibition. The error bars show the SEM.
We prepared highly purified, recombinant NOS1 and NOS2 (24,25). Recombinant bovine NOS3 was purchased from Cayman (Ann Arbor, Mich.). Tetrahydrobiopterin and carboxy-PTIO {2-(4-Carboxyphenyl)-4,4,5,5-tetramethylimidazoline-1-oxyl-3-oxide (potassium salt)} were from Alexis (San Diego, Calif.). 14-C-labeled L-arginine and 14-C-labeled citrulline were from Amersham/GE Healthcare (Waukesha, Wis.). […] NO levels were measured using a “Nitric Oxide Analyzer” (Sievers, Boulder, Colo.) or using diaminofluorescein-FM (4-amino-5-methylamino-2′,7′-difluorofluorescein) from Invitrogen-Molecular Probes.

A short description of experiment [2]: UV/Vis spectroscopy of reaction of agent with NO. The format is binding. The procedure: NO reacts with OH-Cbl as indicated by the change in the UV/Vis spectrum (shift of peak from 352 nm to 354-355 nm, and alteration in the 520 nm region).
Briefly, cells were treated with 500 units/ml of murine interferon-gamma for 24 hours, incubated with 10 uM DAF-FM for 30 minutes, and washed. Then the cells were then assessed for fluorescence in a platereader fluorimeter. The degree of NO formation is proportional to the degree of fluorescence of DfAF-FM. To determine NOS activity, we incubated 14-C-labeled-L-arginine was at 37° C. with 5 nM recombinant NOS1, NOS2 or NOS3 with HEPES buffer, dithiothreitol, tetrahydrobiopterin, FAD, and NADPH in the absence or presence of different concentrations of the compound in question for 60 minutes (27, 28). The reaction was stopped by adding excess L-citrulline, after which 14-C-labeled L-arginine was separated from 14-C-labeled citrulline using a Dowex-50 column (with the 14-C-labeled L-arginine being bound to the Dowex-50, and 14-C-labeled citrulline eluting free from the column). Radioactivity was determined with a scintillation counter, and percentage NOS inhibition was calculated. We determined that none of the compounds quenched detection of the radioactivity. Spectroscopy was determined using a Hitachi U2010 spectrometer (San Jose, Calif.) as noted before (17, 24, 25). […]

In experiment [3] the target is T1, NOS2 (iNOS) (Homo sapiens, UniProt P35228).
T1 construct: made in house
The experiment can be described thus: NOS2 enzymatic activity: conversion of 14-C-L-arginine to L-citrulline. The format is biochemical. The procedure: (§2) The enzymatic activity of purified NOS1, NOS2, or NOS3 to convert radiolabeled L-arginine to L-citrulline was assessed in presence or absence of different concentrations of (A) hydroxocobalamin, (B) cobinamide, (C) dicyanocobinamide, or (D) cyanocobalamin. Results are expressed as percent inhibition.
(§3) The effect of methylcobalamin (not exposed to light or exposed to light) on nNOS is shown in FIG. 3A; its effect on iNOS is shown in FIG. 3B. The effect of adenosylcobalamin (not exposed to light or exposed to light) on nNOS is shown in FIG. 3C; its effect on iNOS is shown in FIG. 3D. The agents were protected from light or exposed to light for 60 minutes. The enzyme assays were done in near-dark conditions (as low light as possible). Light removes the methyl- or adenosyl-group from the agent resulting in hydroxocobalamin.
(§4) Briefly, cells were treated with 500 units/ml of murine interferon-gamma for 24 hours, incubated with 10 uM DAF-FM for 30 minutes, and washed. Then the cells were then assessed for fluorescence in a platereader fluorimeter. The degree of NO formation is proportional to the degree of fluorescence of DfAF-FM. To determine NOS activity, we incubated 14-C-labeled-L-arginine was at 37° C. with 5 nM recombinant NOS1, NOS2 or NOS3 with HEPES buffer, dithiothreitol, tetrahydrobiopterin, FAD, and NADPH in the absence or presence of different concentrations of the compound in question for 60 minutes (27, 28). The reaction was stopped by adding excess L-citrulline, after which 14-C-labeled L-arginine was separated from 14-C-labeled citrulline using a Dowex-50 column (with the 14-C-labeled L-arginine being bound to the Dowex-50, and 14-C-labeled citrulline eluting free from the column). Radioactivity was determined with a scintillation counter, and percentage NOS inhibition was calculated. We determined that none of the compounds quenched detection of the radioactivity. Spectroscopy was determined using a Hitachi U2010 spectrometer (San Jose, Calif.) as noted before (17, 24, 25).

In experiment [4] the test system is Raw 264 cells. As to the kind of experiment: NO formation by activated Raw 264 mouse macrophage cells (DAF-FM fluorescence). The format is cell-based. Particulars: interferon-gamma, 24 hours, 0, 0.5, 2.0, or 8.0 uM. The protocol:
as §1
We prepared highly purified, recombinant NOS1 and NOS2 (24,25). […] NO levels were measured using a “Nitric Oxide Analyzer” (Sievers, Boulder, Colo.) or using diaminofluorescein-FM (4-amino-5-methylamino-2′,7′-difluorofluorescein) from Invitrogen-Molecular Probes.
Briefly, cells were treated with 500 units/ml of murine interferon-gamma for 24 hours, incubated with 10 uM DAF-FM for 30 minutes, and washed. Then the cells were then assessed for fluorescence in a platereader fluorimeter. The degree of NO formation is proportional to the degree of fluorescence of DfAF-FM. […]

Experiment [5] concerns the target T2, NOS1 (nNOS) (Homo sapiens, UniProt P29475).
T2 construct: made in house
The experiment can be described thus: NOS1 enzymatic activity: conversion of 14-C-L-arginine to L-citrulline. The format is biochemical. The protocol:
as §2, §3, §4

The target of experiment [6] is T3, purified, recombinant NOS2 (Homo sapiens, UniProt P35228).
T3 construct: made in house
As to the kind of experiment: UV/Vis spectroscopy of CO binding to reduced NOS2 heme. The settings on record: reduced conditions (dithionite), CO as oxygen mimic. The source says:
Oxygen reacts directly with the reduced iron of the heme group in NOS. Carbon monoxide (CO) (that simulates O2 in binding to the reduced iron) was used to determine the influence of CN2-Cbi on oxygen binding to NOS. The reaction of purified NOS2 with CO in a reduced state (dithionite) markedly changed the UV/Vis spectrum, with appearance of the typical CO-bound Fe^+2-heme peak at 445 nm (FIG. 4A). However, in the presence of CN2-Cbi, there was no appearance of the 445 nm peak induced by CO in a reduced state (FIG. 4B).
Briefly, cells were treated with 500 units/ml of murine interferon-gamma for 24 hours, incubated with 10 uM DAF-FM for 30 minutes, and washed. Then the cells were then assessed for fluorescence in a platereader fluorimeter. The degree of NO formation is proportional to the degree of fluorescence of DfAF-FM. […] Radioactivity was determined with a scintillation counter, and percentage NOS inhibition was calculated. We determined that none of the compounds quenched detection of the radioactivity. Spectroscopy was determined using a Hitachi U2010 spectrometer (San Jose, Calif.) as noted before (17, 24, 25). […]

For experiment [7] the following is noted: stated as known; cited from earlier work.
[8] abbreviates: after light illumination of the agent.

T3 sequence (P35228 whole entry): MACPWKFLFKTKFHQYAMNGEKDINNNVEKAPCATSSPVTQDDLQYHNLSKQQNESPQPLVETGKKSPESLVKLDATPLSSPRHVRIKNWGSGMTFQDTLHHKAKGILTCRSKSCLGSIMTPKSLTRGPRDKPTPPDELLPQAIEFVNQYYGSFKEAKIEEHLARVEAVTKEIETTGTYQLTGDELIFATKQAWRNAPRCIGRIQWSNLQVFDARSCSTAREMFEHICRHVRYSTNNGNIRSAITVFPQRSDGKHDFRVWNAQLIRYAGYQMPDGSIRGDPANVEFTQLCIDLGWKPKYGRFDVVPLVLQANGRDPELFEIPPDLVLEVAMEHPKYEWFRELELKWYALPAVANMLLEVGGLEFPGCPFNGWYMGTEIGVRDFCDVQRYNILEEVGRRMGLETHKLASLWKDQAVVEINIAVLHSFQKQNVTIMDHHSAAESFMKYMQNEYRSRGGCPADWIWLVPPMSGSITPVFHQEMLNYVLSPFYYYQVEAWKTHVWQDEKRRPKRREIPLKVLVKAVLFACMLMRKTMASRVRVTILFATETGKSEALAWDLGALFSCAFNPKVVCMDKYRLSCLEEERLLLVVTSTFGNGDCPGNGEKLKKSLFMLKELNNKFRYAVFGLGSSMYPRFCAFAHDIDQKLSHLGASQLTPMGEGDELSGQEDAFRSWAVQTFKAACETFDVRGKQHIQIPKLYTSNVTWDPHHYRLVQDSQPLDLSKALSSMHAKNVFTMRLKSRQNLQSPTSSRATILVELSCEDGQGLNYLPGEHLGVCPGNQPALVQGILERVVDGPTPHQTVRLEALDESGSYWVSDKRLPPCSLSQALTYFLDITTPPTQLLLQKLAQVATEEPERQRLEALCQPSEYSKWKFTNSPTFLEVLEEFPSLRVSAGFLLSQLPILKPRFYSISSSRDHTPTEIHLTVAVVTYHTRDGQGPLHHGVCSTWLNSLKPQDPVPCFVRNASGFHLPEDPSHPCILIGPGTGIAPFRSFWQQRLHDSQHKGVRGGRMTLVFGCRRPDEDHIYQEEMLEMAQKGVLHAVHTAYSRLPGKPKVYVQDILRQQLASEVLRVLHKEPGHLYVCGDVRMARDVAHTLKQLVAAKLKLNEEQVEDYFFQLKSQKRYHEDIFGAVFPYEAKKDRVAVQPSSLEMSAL

As to `C/C1=C2/[N-]C([C@H](CC(N)=O)[C@@]2(C)CCC(=O)NCC(C)O)[C@]2(C)N=C(/C(C)=C3N=C(/C=C4N=C1[C@@H](CCC(N)=O)C\4(C)C)[C@@H](CCC(N)=O)[C@]\3(C)CC(N)=O)[C@@H](CCC(N)=O)[C@]2(C)CC(N)=O.[C-]#N.[C-]#N.[Co]` (stereo partly drawn) [Dicyanocobinamide], the “inhibition of NO production” value in experiment [1] and in experiment [4] was “dose-dependent inhibition” throughout. For the same compound, in experiment [2], the “reaction with NO (change in UV/visible spectrum)” value was “did not react”. Moreover, in experiment [3] (purified recombinant NOS2), the “NOS2 inhibition (in words)” value is “potent”. Further, the “NOS1 inhibition (in words)” value in experiment [5] (purified recombinant NOS1) is recorded as “potent”. Moreover, the “CO-induced spectral changes in NOS2 (445 nm peak)” value in experiment [6] is reported as “markedly diminished”.
In the case of `C/C1=C2/[N-][C@H]([C@H](CC(N)=O)[C@@]2(C)CCC(=O)NC[C@@H](C)O)[C@]2(C)N=C(/C(C)=C3N=C(/C=C4N=C1[C@@H](CCC(N)=O)C\4(C)C)[C@@H](CCC(N)=O)[C@]\3(C)CC(N)=O)[C@@H](CCC(N)=O)[C@]2(C)CC(N)=O.[Co+3]` [Cobinamide], in experiment [3] (purified recombinant NOS2), the “NOS2 inhibition (in words)” value is reported as “potent”. Moreover, in experiment [7], the “ability to bind and scavenge NO” value was “able to bind and scavenge NO”. Further, in experiment [5] (purified recombinant NOS1), the “NOS1 inhibition (in words)” value is recorded as “potent”.
For the compound Cyanocobalamin, the “NOS2 inhibition (in words)” value in experiment [3] (purified recombinant NOS2) is reported as “much less activity”. Besides, the “NOS1 inhibition (in words)” value in experiment [5] (purified recombinant NOS1) is given as “much less activity”.
As for `CC1(C)N([O])C(c2ccc(C(=O)O)cc2)=[N+]([O-])C1(C)C` [Carboxy-PTIO, 2-(4-Carboxyphenyl)-4,4,5,5-tetramethylimidazoline-1-oxyl-3-oxide (potassium salt)], in experiment [3] (purified recombinant NOS2), the “NOS2 inhibition (in words)” value is recorded as “does not inhibit NOS”. Moreover, the EC50 is 1360 µM in experiment [3] (purified recombinant NOS2, 5 nM, 60 minutes, 37° C., read-out: ED50 NOS2) and 1360 µM in experiment [5] (purified recombinant NOS1, 5 nM, 60 minutes, 37° C., read-out: ED50 NOS1). For the same compound, in experiment [5] (purified recombinant NOS1), the “NOS1 inhibition (in words)” value is “does not inhibit NOS”.
Turning to `C/C1=C2/[N-][C@H]([C@H](CC(N)=O)[C@@]2(C)CCC(=O)NC[C@H](C)OP(=O)([O-])O[C@H]2[C@@H](O)[C@@H](n3cnc4cc(C)c(C)cc43)O[C@@H]2CO)[C@]2(C)N=C(/C(C)=C3N=C(/C=C4N=C1[C@@H](CCC(N)=O)C\4(C)C)[C@@H](CCC(N)=O)[C@]\3(C)CC(N)=O)[C@@H](CCC(N)=O)[C@]2(C)CC(N)=O.[CH3-].[Co+3]` [Methylcobalamin], the “NOS2 inhibition (in words)” value is “inhibitory activity (comparable to native OH-Cbl)” in experiment [3] (setting [8]) and “very little ability to inhibit NOS activity” in experiment [3] (agent not exposed to light). Moreover, the results for the “NOS1 inhibition (in words)” value in experiment [5] (setting [8]) and in experiment [5] (agent not exposed to light) were “inhibitory activity (comparable to native OH-Cbl)” and “very little ability to inhibit NOS activity”, respectively.
For `C/C1=C2/[N-][C@H]([C@H](CC(N)=O)[C@@]2(C)CCC(=O)NC[C@@H](C)OP(=O)([O-])O[C@H]2[C@@H](O)[C@@H](n3cnc4cc(C)c(C)cc43)O[C@@H]2CO)[C@]2(C)N=C(/C(C)=C3N=C(/C=C4N=C1[C@@H](CCC(N)=O)C\4(C)C)[C@@H](CCC(N)=O)[C@]\3(C)CC(N)=O)[C@@H](CCC(N)=O)[C@]2(C)CC(N)=O.[CH2-][C@H]1O[C@@H](n2cnc3c(N)ncnc32)[C@H](O)[C@@H]1O.[Co]` [Adenosylcobalamin], the “NOS2 inhibition (in words)” value in experiment [3] (setting [8]) is “inhibitory activity (comparable to native OH-Cbl)”; in experiment [3] (agent not exposed to light) it was “very little ability to inhibit NOS activity”. Besides, the entries for the “NOS1 inhibition (in words)” value in experiment [5] (setting [8]) and in experiment [5] (agent not exposed to light) were “inhibitory activity (comparable to native OH-Cbl)” and “very little ability to inhibit NOS activity”, respectively.
Regarding `C/C1=C2/[N-][C@H]([C@H](CC(N)=O)[C@@]2(C)CCC(=O)NC[C@@H](C)OP(=O)([O-])O[C@H]2[C@@H](O)[C@@H](n3cnc4cc(C)c(C)cc43)O[C@@H]2CO)[C@]2(C)N=C(/C(C)=C3N=C(/C=C4N=C1[C@@H](CCC(N)=O)C\4(C)C)[C@@H](CCC(N)=O)[C@]\3(C)CC(N)=O)[C@@H](CCC(N)=O)[C@]2(C)CC(N)=O.[Co+3].[OH-]` [Hydroxocobalamin], the “reaction with NO (change in UV/visible spectrum)” value in experiment [2] is reported as “reacted”. Besides, the “NOS2 inhibition (in words)” value in experiment [3] (purified recombinant NOS2) is “potent”. For the same compound, the “ability to bind and scavenge NO” value in experiment [7] was “able to bind and scavenge NO”. For the same compound, the “NOS1 inhibition (in words)” value in experiment [5] (purified recombinant NOS1) is “potent”.

These data come from US7871996B2, “Methods of inhibiting nitric oxide synthase using corrin derivatives” (The United States of America as represented by the …, priority 2006, dated 2011).
